≈ marks a conversion by molar mass, not a printed value. Where two headings read alike, the source gives them in different places.
How the values were obtained:
Fusarium oxysporum (Fo) = test: MIC in malt yeast agar, Fusarium oxysporum; format: cell-based, Fusarium oxysporum ATCC 48112; settings: read-out: Minimum Inhibitory Concentration, Fo
Experimental: (§1) The minimum inhibitory concentration (MIC) for the compounds listed in Table I is determined for 9 bacteria, using nutrient agar, and 7 yeast and fungi, using malt yeast agar. A one percent solution of the test compound is prepared in a mixture of acetone and water. Nutrient agar is prepared at pH 6.8, representing a neutral medium, and at pH 8.2, representing an alkaline medium. The nutrient agars are prepared by adding 23 g of nutrient agar to one-liter of deionized water. In addition, the alkaline medium is prepared by adjusting a 0.04M solution of N-[tris-(hydroxymethyl)methyl]-glycine buffered deionized water with concentrated sodium hydroxide to a pH of […]. Malt yeast agar is prepared by adding 3 g yeast extract and 45 g malt agar per liter of deionized water. The specific agar is dispensed in 30 ml aliquots into 25×200 mm test tubes, capped and autoclaved for 15 minutes at 115° C. The test tubes containing the agar are cooled in a water bath until the temperature of the agar is 48° C. Then, an appropriate amount of the one percent solution of the test compound is added (except in the controls where no compound is added) to the respective test tubes so that the final concentrations are 500, 250, 100, 50, 25, 10, 5, 2.5, 1.0 and zero parts per million of the test compound in the agar, thus having a known concentration of test compound dispersed therein. The contents of the test tubes are then transferred to respective petri plates. After drying for 24 hours, the petri plates containing nutrient agar are inoculated with bacteria and those containing malt yeast agar are inoculated with yeast and fungi.
(§2) The inoculation with the yeast and fungi is accomplished as follows. Cultures of yeast and fungi are incubated for seven days on malt yeast agar at 30° C. These cultures are used to prepare suspensions by the following procedure. A suspension of each organism is prepared by adding 10 ml of sterile saline and 10 microliters of octylphenoxy polyethoxy ethanol (TRITON® X-100, a trademark of Rohm & Haas Company) to the agar slant of yeast or fungi. The sterile saline/octylphenoxy polyethoxy ethanol solution is then agitated with a sterile swab to suspend the microorganism grown on the slant. Each resulting suspension is diluted into sterile saline (1 part suspension: 9 parts sterile saline). Aliquots of these dilutions are placed in individual wells of Steer's Replicator and petri plates inoculated as previously described. The petri plates are incubated at 30° C. and read after 48 hours for yeast and 72 hours for fungi.
(§3) Table II lists the bacteria, yeast and fungi used in the MIC test described above along with their respective American Type Culture Collection (ATCC) identification numbers.
(§4) The following MIC and MEC antimicrobial tests, whose results are shown in Tables XIII-XVII, are performed using the same methods as described hereinabove.

Trichoderma viride (Tv) = test: MIC in malt yeast agar, Trichoderma viride; format: cell-based, Trichoderma viride ATCC 8678; settings: read-out: Minimum Inhibitory Concentration, Tv
Experimental: as §1, §2, §3, §4

[1] = tested on: Klebsiella pneumoniae (Kp); test: MIC in nutrient agar, Klebsiella pneumoniae; format: cell-based, Klebsiella pneumoniae ATCC 8308
Experimental: as §1
(§5) The inoculation with bacteria is accomplished by using the following procedure. Twenty-four hour-cultures of each of the bacteria are prepared by incubating the respective bacteria in tubes containing nutrient broth for 24 hours at 30° C. in a shaker. Dilutions of each of the 24 hour-cultures are made so that nine separate suspensions (one for each of the nine test bacteria) are made, each containing 10^8 colony forming units (CFU) per ml of suspension of a particular bacteria. Aliquots of 0.3 ml of each of the bacterial suspensions are used to fill the individual wells of Steer's Replicator. For each microbial suspension, 0.3 ml was used to fill three wells (i.e., three wells of 0.3 ml each) so that for the nine different bacteria, 27 wells are filled. The Steer's Replicator is then used to inoculate both the neutral and alkaline pH nutrient agar petri plates.
(§6) The inoculated petri plates are incubated at 30° C. for 48 hours and then read to determine if the test compound which is incorporated into the agar prevented growth of the respective bacteria.
as §3, §4

[2] = tested on: mixture of the bacterial organisms listed in Table II; test: Multiple Challenge Test in tape joint formulation; format: cell-based, bacteria listed in Table II; settings: 10 challenges
Experimental: (§7) Additionally, the ability of the compounds of Table I to serve as preservatives in a variety of formulated industrial, household, and commercial products is tested using a Multiple Challenge Test Protocol. In this test, the formulations include a styrene-butadiene latex, a tape joint, a hand lotion, and a shampoo. The styrene-butadiene latex test formulation used is Latex DL 238A, available from The Dow Chemical Company. The compositions of the tape joint, hand lotion and shampoo test formulations can be found in Tables V-VII.
(§8) The formulations are separated into 50 g aliquots and placed in sterile bottles. An appropriate amount of a fresh one percent stock solution of the test compound in acetone-water is added to achieve the desired final concentrations. A small portion of each of the test formulations is streaked onto Tryptic Soy Agar (TSA) petri plates using sterile cotton swabs to ensure that the formulations are sterile. If the formulation is sterile, then it is inoculated with 0.1 ml of a mixture of equal aliquots of the 24 hour cultures of each of the bacterial organisms listed in Table II. The test formulations are then incubated at 30° C. After 24 hours, each sample is streaked onto a TSA petri plate using a sterile swab. All plates are then incubated at 30° C. for 48 hours and then rated for microbial growth using the rating system listed in Table VIII. Samples with a rating of 3 or less are reinoculated as described in the procedure for the first inoculation. Samples with a rating of 4 or greater are not reinoculated but after another 24 hours are restreaked on TSA agar.
(§9) The normal interpretation of the results is that a concentration of the antimicrobial being tested is considered to be effective if no ratings greater than a 3 are observed throughout the 10 challenges. The Minimum Effective Concentration (MEC), which is used to compare the activity of the antimicrobial additives in the end-use formulations, is the minimum level that is effective under the conditions of the Multiple Challenge Test.

[3] = tested on: Enterobacter aerogenes (Ea); test: MIC in nutrient agar, Enterobacter aerogenes; format: cell-based, Enterobacter aerogenes ATCC 13048
Experimental: as §1, §5, §6, §3, §4

[4] = tested on: Staphylococcus aureus (Sa); test: MIC in nutrient agar, Staphylococcus aureus; format: cell-based, Staphylococcus aureus ATCC 6538
Experimental: as §1, §5, §6, §3, §4

[5] = tested on: Penicillium chrysogenum (Pc); test: MIC in malt yeast agar, Penicillium chrysogenum; format: cell-based, Penicillium chrysogenum ATCC 9480; settings: read-out: Minimum Inhibitory Concentration, Pc
Experimental: as §1, §2, §3, §4

[6] = tested on: Aureobasidium pullulan (Ap); test: MIC in malt yeast agar, Aureobasidium pullulan; format: cell-based, Aureobasidium pullulan ATCC 16622; settings: read-out: Minimum Inhibitory Concentration, Ap
Experimental: as §1, §2, §3, §4

[7] = tested on: mixture of the bacterial organisms listed in Table II; test: Multiple Challenge Test in hand lotion formulation; format: cell-based, bacteria listed in Table II; settings: 10 challenges
Experimental: as §7, §8, §9

[8] = pH 6.8, read-out: Minimum Inhibitory Concentration, Kp
[9] = pH 8.2, read-out: Minimum Inhibitory Concentration, Kp
[10] = Klebsiella aerogenes, pH 6.8, read-out: Minimum Inhibitory Concentration, Ea
[11] = Klebsiella aerogenes, pH 8.2; read-out: Minimum Inhibitory Concentration, Ea
[12] = Staphylococcus aureus, pH 6.8; read-out: Minimum Inhibitory Concentration, Sa
[13] = Staphylococcus aureus, pH 8.2, read-out: Minimum Inhibitory Concentration, Sa
[14] = Klebsiella aerogenes, pH 6.8; read-out: Minimum Inhibitory Concentration, Ea
[15] = Staphylococcus aureus, pH 6.8, read-out: Minimum Inhibitory Concentration, Sa
[16] = Staphylococcus aureus, pH 8.2; read-out: Minimum Inhibitory Concentration, Sa

CCSC#CC#N [B, 3-ethylthio-2-propynenitrile]
MIC (Fusarium oxysporum (Fo); malt yeast agar): < 1 mg/L | MIC (Trichoderma viride (Tv)): 10 mg/L (≈ 90 µM) | MIC [1, 8]: 5 mg/L (≈ 45 µM) | MIC [1, 9]: 5 mg/L (≈ 45 µM) | MEC [2]: 25 ppm | MIC [3, 10]: 25 mg/L (≈ 225 µM) | MIC [3, 11]: 25 mg/L (≈ 225 µM) | MIC [4, 12]: 5 mg/L (≈ 45 µM) | MIC [4, 13]: 10 mg/L (≈ 90 µM) | MIC ([5]; malt yeast agar): < 1 mg/L | MIC ([6]; malt yeast agar): < 1 mg/L | MEC [7]: 25 ppm

N#CC#CSC1CCCC1 [C, 3-cyclopentylthio-2-propynenitrile]
MIC (Fusarium oxysporum (Fo); malt yeast agar): < 1 mg/L | MIC (Trichoderma viride (Tv); malt yeast agar): 2.5 mg/L (≈ 16.5 µM) | MIC [1, 8]: < 10 mg/L | MIC [1, 9]: 25 mg/L (≈ 165 µM) | MEC [2]: 100 ppm | MIC [3, 14]: 100 mg/L (≈ 661 µM) | MIC [3, 11]: 100 mg/L (≈ 661 µM) | MIC [4, 15]: < 10 mg/L | MIC [4, 16]: < 10 mg/L | MIC ([5]; malt yeast agar): < 1 mg/L | MIC ([6]; malt yeast agar): 2.5 mg/L (≈ 16.5 µM) | MEC [7]: 250 ppm

CSC#CC#N [Compound A, 3-methylthio-2-propynenitrile]
MIC (Fusarium oxysporum (Fo); malt yeast agar): 0.5 mg/L (≈ 5.15 µM) | MIC (Trichoderma viride (Tv); malt yeast agar): 0.25 mg/L (≈ 2.57 µM) | MIC [1, 8]: 2.5 mg/L (≈ 25.7 µM) | MIC [1, 9]: 10 mg/L (≈ 103 µM) | MEC [2]: 10 ppm | MIC [3, 14]: 2.5 mg/L (≈ 25.7 µM) | MIC [3, 11]: 25 mg/L (≈ 257 µM) | MIC [4, 12]: 2.5 mg/L (≈ 25.7 µM) | MIC [4, 16]: 5 mg/L (≈ 51.5 µM) | Minimum Inhibitory Concentration, Sa ([4]; pH 8.2): 5 ppm | MIC ([5]; malt yeast agar): 0.25 mg/L (≈ 2.57 µM) | MIC ([6]; malt yeast agar): 2.5 mg/L (≈ 25.7 µM) | MEC [7]: 10 ppm

CSC=C(Cl)C#N [Compound G, 2-chloro-3-(methylthio)-2-propenenitrile]
MIC (Fusarium oxysporum (Fo)): 50 mg/L (≈ 374 µM) | MIC (Trichoderma viride (Tv)): 100 mg/L (≈ 748 µM) | MIC [1, 8]: 50 mg/L (≈ 374 µM) | MIC [1, 9]: 10 mg/L (≈ 74.8 µM) | MIC [3, 10]: 50 mg/L (≈ 374 µM) | MIC ([3]; Klebsiella aerogenes, pH 8.2, read-out: Minimum Inhibitory Concentration, Ea): 10 mg/L (≈ 74.8 µM) | MIC [4, 15]: 50 mg/L (≈ 374 µM) | MIC [4, 13]: 5 mg/L (≈ 37.4 µM) | MIC [5]: 50 mg/L (≈ 374 µM) | MIC [6]: 50 mg/L (≈ 374 µM)

N#CC#CSc1ccc(Cl)cc1 [D, 3-(4-chlorophenylthio)-2-propynenitrile]
MIC (Fusarium oxysporum (Fo); malt yeast agar): < 1 mg/L | MIC (Trichoderma viride (Tv); malt yeast agar): 2.5 mg/L (≈ 12.9 µM) | MIC [1, 8]: < 10 mg/L | MIC [1, 9]: 50 mg/L (≈ 258 µM) | MEC [2]: 100 ppm | MIC [3, 14]: < 10 mg/L | MIC [3, 11]: 50 mg/L (≈ 258 µM) | MIC [4, 12]: < 10 mg/L | MIC [4, 16]: 25 mg/L (≈ 129 µM) | MIC ([5]; malt yeast agar): < 1 mg/L | MIC ([6]; malt yeast agar): < 1 mg/L | MEC [7]: 250 ppm
